Assay results published in US20250179047A1, “5-[7-(3,4-DIHYDRO-1H-ISOQUINOLINE-2-CARBONYL)-1,2,3,4 TETRAHYDROISOQUINOLIN-6-YL]-1H-PYRROLE-3-CARBOXAMIDE DERIVATIVES, PHARMACEUTICAL COMPOSITIONS CONTAINING THEM AND THEIR USES AS PRO-APOPTOTIC AGENTS” (LES LABORATOIRES SERVIER, priority 2022, published 2025).

Columns and labels:
Format in all cases: cell-based
[1] = test system: KMS-12-PE Bcl-2 WT; test: In vitro cytotoxicity CellTiter-Glo 48 h, KMS-12-PE Bcl-2 WT; conditions: C50 = concentration needed to reach 50% of the cellular viability
Method in brief: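 Potency is expressed as C50, the compound concentration at which viability of engineered KMS-12-PE cells (Bcl-2 wild type or G101V) falls to 50%, determined from CellTiter-Glo luminescence after 48 h of treatment over 11 concentrations.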

[2] = test system: KMS12PE Bcl2 WT; test: In vitro cytotoxicity CellTiterGlo 72 h, KMS12PE Bcl2 WT; conditions: Homo sapiens, KMS-12-PE, read-out: C50 nM, KMS12PE Bcl2 WT
Experimental: (§1) KMS-12-PE (ACC 606) were purchased from the Leibniz-Institute DSMZ (Braunschweig, Germany) and were grown at 37° C. in a humidified atmosphere with 5% CO2 in media recommended by the suppliers. Lentiviral particles containing Bcl-2 wild type (also named “Bcl2 WT”), Bcl-2 mutated on G101V (also named “Bcl2 G101V”), Bcl-2 mutated on D103Y (also named “Bcl2 D103Y”), Bcl-2 mutated on D103V (also named “Bcl2 D103V”), Bcl-2 mutated on D103E (also named “Bcl2 D103E”), Bcl-2 mutated on F104I (also named “Bcl2 F104I”), Bcl-2 mutated on F104L (also named “Bcl2 F104L”), Bcl-2 mutated on D111A (also named “Bcl2 D111A”), Bcl-2 mutated on A113G (also named “Bcl2 A113G”), Bcl-2 mutated on R129L (also named “Bcl2 R129L”), Bcl-2 mutated on V156D (also named “Bcl2 V156D”) were cloned into pcLV-CMV-DEST-IRES-TagRFP. Lentiviral particles (1×10^6) were mixed with Polybrene at 8 μg/ml and transduced by spinoculation for 1 h at 32° C. and incubated overnight. After 8 days, TagRFP positive-cells were sorted by FACS. BCL2 expression was monitored by immunoblotting using anti-Flag and anti-BCL2 antibodies. Cells were seeded into 96-wells plates and treated with 1:3.16 serial dilution of compounds (9 different concentrations). Cell viability was assessed using CellTiterGlo reagent following treatment for 72 h. Results were normalized to the viability of cells without compounds (control wells). The C50 values were calculated using nonlinear regression algorithms in XCell software.

[3] = test system: KMS12PE Bcl2 G101V; test: In vitro cytotoxicity CellTiterGlo 72 h, KMS12PE Bcl2 G101V; conditions: Homo sapiens, KMS-12-PE, read-out: C50 nM, KMS12PE Bcl2 G101V
Experimental: as §1

[4] = test system: KMS12PE Bcl2 D103E; test: In vitro cytotoxicity CellTiterGlo 72 h, KMS12PE Bcl2 D103E; conditions: Homo sapiens, KMS-12-PE, read-out: C50 nM, KMS12PE Bcl2 D103E
Experimental: as §1

[5] = test system: KMS12PE Bcl2 R129L; test: In vitro cytotoxicity CellTiterGlo 72 h, KMS12PE Bcl2 R129L; conditions: Homo sapiens, KMS-12-PE, read-out: C50 nM, KMS12PE Bcl2 R129L
Experimental: as §1

| SMILES | IC50 ([1]; Homo sapiens, KMS-12-PE) | IC50 [2] | IC50 [3] | IC50 [4] | IC50 [5] | IC50 [1] |
| --- | --- | --- | --- | --- | --- | --- |
| Cc1c(N(C(=O)c2cc(-c3cc4c(cc3C(=O)N3Cc5ccccc5C[C@H]3C)CN(C(=O)Cc3ccc(OCCC5CCOCC5)cc3)CC4)n(C)c2C)c2ccc(O)cc2)cc(C#N)n1C [Example 27, N-(5-cyano-1,2-dimethyl-1H-pyrrol-3-yl)-N-(4-hydroxyphenyl)-1,2-dimethyl-5-{7-[(3R)-3-methyl-1,2,3,4-tetrahydroisoquinoline-2-carbonyl]-2-(2-{4-[2-(oxan-4-yl)ethoxy]phenyl}acetyl)-1,2,3,4-tetrahydroisoquinolin-6-yl}-1H-pyrrole-3-carboxamide] | 0.0037 µM | 1.53 nM | 7.19 nM | 1.44 nM | 0.99 nM |  |
| Cc1c(N(C(=O)c2cc(-c3cc4c(cc3C(=O)N3Cc5ccccc5C[C@H]3C)CN(C(=O)Cc3ccc(N5CCN6CCOC[C@@H]6C5)cc3F)CC4)n(C)c2C)c2ccc(O)cc2)cc(C#N)n1C [Example 45, 5-[2-(2-{4-[(9aS)-octahydropyrazino[2,1-c][1,4]oxazin-8-yl]-2-fluorophenyl}acetyl)-7-[(3R)-3-methyl-1,2,3,4-tetrahydroisoquinoline-2-carbonyl]-1,2,3,4-tetrahydroisoquinolin-6-yl]-N-(5-cyano-1,2-dimethyl-1H-pyrrol-3-yl)-N-(4-hydroxyphenyl)-1,2-dimethyl-1H-pyrrole-3-carboxamide] | 0.005 µM | 3.3 nM | 18.2 nM | 2.7 nM | 1.89 nM |  |
| Cc1c(N(C(=O)c2cc(-c3cc4c(cc3C(=O)N3Cc5ccccc5C[C@H]3CN3CCC[C@H](C)C3)CN(C(=O)Cc3ccc(OCCN5CCOCC5)cc3F)CC4)n(C)c2C)c2ccc(O)cc2)cc(C#N)n1C [Example 107] | 0.0034 µM | 1.59 nM | 9.13 nM | 1.22 nM | 1.12 nM |  |
| Cc1c(N(C(=O)c2cc(-c3cc4c(cc3C(=O)N3Cc5ccccc5C[C@H]3C)CN(C(=O)Cc3ccc(OCCN5CCC(F)CC5)cc3)CC4)n(C)c2C)c2ccc(O)cc2)cc(C#N)n1C [Example 53, N-(5-cyano-1,2-dimethyl-1H-pyrrol-3-yl)-5-[2-(2-{4-[2-(4-fluoropiperidin-1-yl)ethoxy]phenyl}acetyl)-7-[(3R)-3-methyl-1,2,3,4-tetrahydroisoquinoline-2-carbonyl]-1,2,3,4-tetrahydroisoquinolin-6-yl]-N-(4-hydroxyphenyl)-1,2-dimethyl-1H-pyrrole-3-carboxamide] | 0.0072 µM | 2.88 nM | 16.3 nM | 2.76 nM | 2.38 nM |  |
| Cc1c(N(C(=O)c2cc(-c3cc4c(cc3C(=O)N3Cc5ccccc5C[C@H]3C)CN(C(=O)Cc3ccc(OCCN5CCSCC5)cc3)CC4)n(C)c2C)c2ccc(O)cc2)cc(C#N)n1C [Example 55, N-(5-cyano-1,2-dimethyl-1H-pyrrol-3-yl)-N-(4-hydroxyphenyl)-1,2-dimethyl-5-{7-[(3R)-3-methyl-1,2,3,4-tetrahydroisoquinoline-2-carbonyl]-2-(2-{4-[2-(thiomorpholin-4-yl)ethoxy]phenyl}acetyl)-1,2,3,4-tetrahydroisoquinolin-6-yl}-1H-pyrrole-3-carboxamide] | 0.0062 µM | 2.61 nM | 13.7 nM | 2.91 nM | 2.46 nM |  |
| Cc1c(N(C(=O)c2cc(-c3cc4c(cc3C(=O)N3Cc5ccccc5C[C@H]3C)CN(C(=O)Cc3ccc(CCN5CCC(F)(F)CC5)cc3)CC4)n(C)c2C)c2ccc(O)cc2)cc(C#N)n1C [Example 51, N-(5-cyano-1,2-dimethylpyrrol-3-yl)-5-[2-(2-{4-[2-(4,4-difluoropiperidin-1-yl)ethyl]phenyl}acetyl)-7-{[(3R)-3-methyl-3,4-dihydro-1H-isoquinolin-2-yl]carbonyl}-3,4-dihydro-1H-isoquinolin-6-yl]-N-(4-hydroxyphenyl)-1,2-dimethylpyrrole-3-carboxamide] | 0.0068 µM | 2.82 nM | 20.2 nM | 2.81 nM | 3.22 nM |  |
| Cc1c(N(C(=O)c2cc(-c3cc4c(cc3C(=O)N3Cc5ccccc5C[C@H]3C)CN(C(=O)Cc3ccc(OCCN5CCOCC5)cc3)CC4)n(C)c2C)c2ccc(O)cc2)cc(C#N)n1C [Example 21, N-(5-cyano-1,2-dimethyl-1H-pyrrol-3-yl)-N-(4-hydroxyphenyl)-1,2-dimethyl-5-{7-[(3R)-3-methyl-1,2,3,4-tetrahydroisoquinoline-2-carbonyl]-2-(2-{4-[2-(morpholin-4-yl)ethoxy]phenyl}acetyl)-1,2,3,4-tetrahydroisoquinolin-6-yl}-1H-pyrrole-3-carboxamide] | 0.0057 µM | 2.56 nM | 9.36 nM | 2.36 nM | 1.51 nM |  |
| COC[C@@H]1Cc2ccccc2CN1C(=O)c1cc2c(cc1-c1cc(C(=O)N(c3ccc(O)cc3)c3cc(C#N)n(C)c3C)c(C)n1C)CCN(C(=O)Cc1ccc(OCCC3CCOCC3)cc1F)C2 [Example 52, N-(5-cyano-1,2-dimethylpyrrol-3-yl)-5-[2-(2-{2-fluoro-4-[2-(oxan-4-yl)ethoxy]phenyl}acetyl)-7-{[(3S)-3-(methoxymethyl)-3,4-dihydro-1H-isoquinolin-2-yl]carbonyl}-3,4-dihydro-1H-isoquinolin-6-yl]-N-(4-hydroxyphenyl)-1,2-dimethylpyrrole-3-carboxamide] | 0.0034 µM | 2.07 nM | 10.6 nM | 1.86 nM | 1.89 nM |  |
| Cc1c(N(C(=O)c2cc(-c3cc4c(cc3C(=O)N3Cc5ccccc5C[C@H]3CN3CCCCC3)CN(C(=O)Cc3ccc(OCCN5CCOCC5)cc3F)CC4)n(C)c2C)c2ccc(O)cc2)cc(C#N)n1C [Example 43, N-(5-cyano-1,2-dimethylpyrrol-3-yl)-5-[2-(2-{2-fluoro-4-[2-(morpholin-4-yl)ethoxy]phenyl}acetyl)-7-{[(3S)-3-(piperidin-1-ylmethyl)-3,4-dihydro-1H-isoquinolin-2-yl]carbonyl}-3,4-dihydro-1H-isoquinolin-6-yl]-N-(4-hydroxyphenyl)-1,2-dimethylpyrrole-3-carboxamide] |  | 1.8 nM | 10 nM | 1.44 nM | 0.99 nM | 0.0048 µM |
| Cc1c(N(C(=O)c2cc(-c3cc4c(cc3C(=O)N3Cc5ccccc5C[C@H]3CN3CCCCC3)CN(C(=O)Cc3ccc(OCCC5CCOCC5)cc3)CC4)n(C)c2C)c2ccc(O)cc2)cc(C#N)n1C [Example 66, N-(5-cyano-1,2-dimethylpyrrol-3-yl)-N-(4-hydroxyphenyl)-1,2-dimethyl-5-[2-(2-{4-[2-(oxan-4-yl)ethoxy]phenyl}acetyl)-7-{[(3S)-3-(piperidin-1-ylmethyl)-3,4-dihydro-1H-isoquinolin-2-yl]carbonyl}-3,4-dihydro-1H-isoquinolin-6-yl]pyrrole-3-carboxamide] | 0.006 µM | 1.74 nM | 10.1 nM | 1.89 nM | 1.32 nM |  |
| Cc1c(C(=O)N(c2ccc(O)cc2)c2cc(C#N)n(C(F)F)c2C)cc(-c2cc3c(cc2C(=O)N2Cc4ccccc4C[C@H]2CN2CCCCC2)CN(C(=O)Cc2ccc(OCCN4CCOCC4)cc2F)CC3)n1C [Example 78, N-[5-cyano-1-(difluoromethyl)-2-methylpyrrol-3-yl]-5-[2-(2-{2-fluoro-4-[2-(morpholin-4-yl)ethoxy]phenyl}acetyl)-7-{[(3S)-3-(piperidin-1-ylmethyl)-3,4-dihydro-1H-isoquinolin-2-yl]carbonyl}-3,4-dihydro-1H-isoquinolin-6-yl]-N-(4-hydroxyphenyl)-1,2-dimethylpyrrole-3-carboxamide] | 0.005 µM | 1.41 nM | 8.35 nM | 1.18 nM | 0.9 nM |  |
| Cc1c(C(=O)N(c2ccc(O)cc2)c2cc(C#N)n(C(F)F)c2C)cc(-c2cc3c(cc2C(=O)N2Cc4ccccc4C[C@H]2CN2CCCCC2)CN(C(=O)Cc2ccc(OCCN4CCOCC4)cc2)CC3)n1C [Example 77] | 0.0084 µM | 4.75 nM | 28.2 nM | 4.69 nM | 2.81 nM |  |
